From PubChem BioAssay (NCI)
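Abbreviation: GI50, concentration required for 50% inhibition of growth. TGI denotes the concentration required for complete inhibition of growth.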

Legend:
Assay in all cases: NCI anticancer screen, dose series, 384-well format
ACHN renal = test system: ACHN renal
T-47D breast = test system: T-47D breast
NCI-H226 lung = test system: NCI-H226 lung
DU-145 prostate = test system: DU-145 prostate
SF-539 CNS = test system: SF-539 CNS
NCI-H322M lung = test system: NCI-H322M lung
PC-3 prostate = test system: PC-3 prostate
TK-10 renal = test system: TK-10 renal
NCI-H522 lung = test system: NCI-H522 lung
NCI-H460 NSCLC = test system: NCI-H460 NSCLC
MOLT-4 leukemia = test system: MOLT-4 leukemia
KM12 colon = test system: KM12 colon
SN12C renal = test system: SN12C renal
A498 renal = test system: A498 renal
OVCAR-8 ovarian = test system: OVCAR-8 ovarian
K-562 leukemia = test system: K-562 leukemia
OVCAR-3 ovarian = test system: OVCAR-3 ovarian
MDA-MB-435 melanoma = test system: MDA-MB-435 melanoma
NCI/ADR-RES ovarian = test system: NCI/ADR-RES ovarian
HT29 colon = test system: HT29 colon
BT-549 breast = test system: BT-549 breast
A549 NSCLC = test system: A549 NSCLC
UACC-257 melanoma = test system: UACC-257 melanoma
RPMI-8226 leukemia = test system: RPMI-8226 leukemia
HCT-116 colon = test system: HCT-116 colon
SK-MEL-5 melanoma = test system: SK-MEL-5 melanoma
CAKI-1 renal = test system: CAKI-1 renal
SK-OV-3 ovarian = test system: SK-OV-3 ovarian
UO-31 renal = test system: UO-31 renal

## C=C(F)C(=O)N1CCN(c2nc(OC[C@@H]3CCCN3C)nc3c2CCN(c2cccc4cccc(Cl)c24)C3)C[C@@H]1CC#N
ACHN renal
  TGI: 2160 nM
T-47D breast
  GI50: 430 nM
  TGI: 1900 nM
NCI-H226 lung
  GI50: 915 nM
  TGI: 2140 nM
DU-145 prostate
  GI50: 1210 nM
  TGI: 2480 nM
SF-539 CNS
  GI50: 472 nM
  TGI: 1520 nM
NCI-H322M lung
  GI50: 1270 nM
  TGI: 2590 nM
PC-3 prostate
  GI50: 723 nM
  TGI: 2010 nM
TK-10 renal
  GI50: 925 nM
  TGI: 2160 nM
NCI-H522 lung
  GI50: 255 nM
  TGI: 861 nM
NCI-H460 NSCLC
  GI50: 414 nM
  TGI: 1390 nM
MOLT-4 leukemia
  GI50: 182 nM
  TGI: 384 nM
KM12 colon
  GI50: 561 nM
  TGI: 1750 nM
SN12C renal
  GI50: 1200 nM
  TGI: 2440 nM
A498 renal
  GI50: 471 nM
  TGI: 1590 nM
OVCAR-8 ovarian
  GI50: 405 nM
  TGI: 1360 nM
K-562 leukemia
  GI50: 253 nM
  TGI: 1320 nM
OVCAR-3 ovarian
  GI50: 657 nM
  TGI: 1880 nM
MDA-MB-435 melanoma
  GI50: 1270 nM
  TGI: 2550 nM
NCI/ADR-RES ovarian
  GI50: 411 nM
  TGI: 1440 nM
HT29 colon
  GI50: 652 nM
  TGI: 1930 nM
BT-549 breast
  GI50: 1210 nM
  TGI: 2450 nM
A549 NSCLC
  GI50: 561 nM
  TGI: 1840 nM
UACC-257 melanoma
  GI50: 749 nM
  TGI: 2020 nM
RPMI-8226 leukemia
  GI50: 165 nM
  TGI: 491 nM
HCT-116 colon
  GI50: 326 nM
  TGI: 1350 nM
SK-MEL-5 melanoma
  GI50: 564 nM
  TGI: 1810 nM
CAKI-1 renal
  GI50: 499 nM
  TGI: 1690 nM
SK-OV-3 ovarian
  GI50: 1070 nM
  TGI: 2280 nM
UO-31 renal
  GI50: 1150 nM
  TGI: 2370 nM
